Data reported in patent US20230072683A1, “PYRIDO-PYRIMIDIN DERIVATIVES AND PHARMACEUTICAL COMPOSITION, FOR USE IN PREVENTING OR TREATING PI3 KINASE RELATED DISEASES, COMPRISING SAME AS ACTIVE INGREDIENT” (BORYUNG PHARMACEUTICAL CO., LTD, priority 2019, published 2023).
Read-outs that look alike come from different tables or passages of the source.

How the values were obtained:
[1] = target: PI3K-δ (PI3K(p1108/p857) (h)) (Homo sapiens, UniProt O00329); assay: Evaluation of inhibitory activity against PI3K-δ (HTRF kinase assay); type: biochemical; conditions: for inhibition at 0.01 µM: compound concentration 0.01 μM, read-out: EXP_VALUE(% Inhibition) PI3K-δ 0.01 μM; for inhibition at 0.1 µM: read-out: EXP_VALUE(% Inhibition) PI3K-δ 0.1 μM
Description: <Experimental Example 1> Evaluation of Inhibitory Activity Properties Against PI3K-δ
The following experiments were performed to verify the inhibitory activity against PI3K-δ with regard to each of the compounds of Examples 1 to 441 according to the present invention.
PI3K(p1108/p857) (h) was incubated in assay buffer comprising 10 μM phosphatidylinositol-4,5-bisphosphate and Mg/ATP (at a concentration as required). The reaction was initiated by the addition of a Mg/ATP mixture, and after incubation for 30 minutes at room temperature, a stop solution comprising EDTA and phosphatidylinositol-3,4,5-triphosphate was added to stop the reaction and carry out biotinylation.
A detection buffer comprising Eu (europium)-labelled anti-GST monoclonal antibody, GST-tagged GRP1 PH domain and streptavidin-allophycocyanin was added. A plate was read in a time-resolved fluorescence mode and a homogeneous time-resolved fluorescence (HTRF) signal was determined according to HTRF=10000×(Em 665 nm/Em 620 nm).

[2] = target: DNA-PK(h) (Homo sapiens, UniProt P78527); assay: Evaluation of inhibitory activity against DNA-PK (HTRF kinase assay, GST-cMyc-p53 substrate); type: biochemical; conditions: for inhibition at 0.01 µM: compound concentration 0.01 μM, read-out: EXP_VALUE(% Inhibition) DNA-PK(h) 0.01 μM; for inhibition at 0.1 µM: read-out: EXP_VALUE(% Inhibition) DNA-PK(h) 0.1 μM
Description: <Experimental Example 2> Evaluation of Inhibitory Activity Properties Against DNA-PK
The following experiments were performed to verify the inhibitory activity against DNA-PK with regard to each of the compounds of Examples 1 to 441 according to the present invention.
DNA-PK(h) was subjected to an isothermal treatment in an assay buffer comprising […] GST-cMyc-p53 and Mg/ATP (at a concentration as required). The reaction was initiated by the addition of a Mg/ATP mixture, and after incubation for 30 minutes at room temperature, a stop solution comprising EDTA was added to stop the reaction. A detection buffer comprising d2-labelled anti-GST monoclonal antibody and Europium-labelled anti-phospho Ser15 antibody for phosphorylated p53 was added. A plate was read in a time-resolved fluorescence mode and a homogeneous time-resolved fluorescence (HTRF) signal was determined according to HTRF=10000×(Em 665 nm/Em 620 nm).

Sequence of PI3K-δ (PI3K(p1108/p857) (h)) (O00329 whole entry): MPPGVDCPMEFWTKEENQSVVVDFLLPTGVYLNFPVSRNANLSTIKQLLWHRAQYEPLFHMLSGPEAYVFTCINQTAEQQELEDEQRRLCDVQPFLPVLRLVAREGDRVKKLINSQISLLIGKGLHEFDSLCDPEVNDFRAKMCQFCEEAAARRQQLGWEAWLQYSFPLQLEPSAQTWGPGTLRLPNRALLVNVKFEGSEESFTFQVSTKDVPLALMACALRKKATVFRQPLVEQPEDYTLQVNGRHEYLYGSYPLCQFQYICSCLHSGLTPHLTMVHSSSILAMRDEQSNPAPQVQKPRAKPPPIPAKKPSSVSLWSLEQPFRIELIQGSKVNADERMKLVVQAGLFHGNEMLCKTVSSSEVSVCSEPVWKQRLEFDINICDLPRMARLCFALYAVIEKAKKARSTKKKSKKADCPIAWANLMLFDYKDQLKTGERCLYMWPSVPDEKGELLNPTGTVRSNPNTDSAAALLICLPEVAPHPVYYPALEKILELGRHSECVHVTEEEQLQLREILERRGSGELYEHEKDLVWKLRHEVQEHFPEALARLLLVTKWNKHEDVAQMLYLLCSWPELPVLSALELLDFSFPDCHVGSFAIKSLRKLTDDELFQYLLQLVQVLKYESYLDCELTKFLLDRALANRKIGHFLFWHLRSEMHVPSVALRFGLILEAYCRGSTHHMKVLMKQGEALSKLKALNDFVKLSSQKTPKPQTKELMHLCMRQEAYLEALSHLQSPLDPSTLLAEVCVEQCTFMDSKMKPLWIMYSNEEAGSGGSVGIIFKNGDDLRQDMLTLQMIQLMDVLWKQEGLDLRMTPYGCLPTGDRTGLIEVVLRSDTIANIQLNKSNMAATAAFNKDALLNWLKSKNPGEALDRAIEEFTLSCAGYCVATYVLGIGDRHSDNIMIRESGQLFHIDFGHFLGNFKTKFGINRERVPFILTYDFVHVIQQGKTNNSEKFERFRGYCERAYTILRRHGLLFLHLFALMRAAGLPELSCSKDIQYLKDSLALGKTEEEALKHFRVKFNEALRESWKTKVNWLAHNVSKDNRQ
Sequence of PI3K-δ (PI3K(p1108/p857) (h)) (P27986 whole entry partner): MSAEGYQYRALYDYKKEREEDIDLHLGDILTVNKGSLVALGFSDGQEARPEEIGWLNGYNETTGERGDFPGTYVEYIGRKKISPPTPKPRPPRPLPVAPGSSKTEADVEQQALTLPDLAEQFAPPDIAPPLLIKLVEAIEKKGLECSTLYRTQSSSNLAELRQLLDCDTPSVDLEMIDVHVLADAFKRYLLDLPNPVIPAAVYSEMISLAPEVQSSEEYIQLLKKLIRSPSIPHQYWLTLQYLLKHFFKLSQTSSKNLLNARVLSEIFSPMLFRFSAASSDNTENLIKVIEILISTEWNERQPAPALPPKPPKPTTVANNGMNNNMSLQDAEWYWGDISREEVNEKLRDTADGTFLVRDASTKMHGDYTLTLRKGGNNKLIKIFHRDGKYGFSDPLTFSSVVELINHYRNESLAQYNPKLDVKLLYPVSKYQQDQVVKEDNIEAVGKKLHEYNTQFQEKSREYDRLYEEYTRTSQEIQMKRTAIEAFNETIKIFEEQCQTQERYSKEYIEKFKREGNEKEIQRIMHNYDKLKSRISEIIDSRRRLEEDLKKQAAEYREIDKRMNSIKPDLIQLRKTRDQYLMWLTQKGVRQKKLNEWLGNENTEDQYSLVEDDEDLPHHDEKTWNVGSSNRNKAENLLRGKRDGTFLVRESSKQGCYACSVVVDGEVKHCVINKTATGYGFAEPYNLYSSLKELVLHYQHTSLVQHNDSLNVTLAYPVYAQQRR

| Structure (SMILES) | inhibition at 0.01 µM [1] [%] | inhibition at 0.1 µM ([1]; compound concentration 0.1 μM) [%] | inhibition at 0.01 µM [2] [%] | inhibition at 0.1 µM ([2]; compound concentration 0.1 μM) [%] | inhibition at 0.1 µM ([1]; compound at 0.1 μM) [%] | inhibition at 0.1 µM ([2]; compound at 0.1 μM) [%] |
| --- | --- | --- | --- | --- | --- | --- |
| C[C@H](Nc1ncnc2[nH]ccc(=O)c12)c1c(Cl)c2cccc(-c3cccc(C=O)c3)c2c(=O)n1-c1ccccc1 [Example 79, (S)-3-(4-chloro-1-oxo-3-(1-((5-oxo-5,8-dihydropyrido[2,3-d]pyrimidin-4-yl)amino)ethyl)-2-phenyl-1,2-dihydroisoquinolin-8-yl)benzaldehyde] | 114 | 111 | 82 | 98 | – | – |
| C[C@H](Nc1ncnc2[nH]ccc(=O)c12)c1c(Cl)c2cccc(-c3ncc(F)cn3)c2c(=O)n1-c1ccccc1 [Example 53, (S)-4-((1-(4-chloro-8-(5-fluoropyrimidin-2-yl)-1-oxo-2-phenyl-1,2-dihydroisoquinolin-3-yl)ethyl)amino)pyrido[2,3-d]pyrimidin-5(8H)-one] | 11 | – | -3 | – | – | – |
| C[C@H](Nc1ncnc2[nH]ccc(=O)c12)c1c(Cl)c2cccc(-c3ccc(Cl)c(Cl)c3)c2c(=O)n1-c1ccccc1 [Example 71, (S)-4-((1-(4-chloro-8-(3,4-dichlorophenyl)-1-oxo-2-phenyl-1,2-dihydroisoquinolin-3-yl)ethyl)amino)pyrido[2,3-d]pyrimidin-5(8H)-one] | 17 | 44 | 16 | 41 | – | – |
| C[C@H](Nc1ncnc2[nH]ccc(=O)c12)c1c(Cl)c2cccc(-c3cnc(C(F)(F)F)cn3)c2c(=O)n1-c1ccccc1 [Example 51, (S)-4-((1-(4-chloro-1-oxo-2-phenyl-8-(5-(trifluoromethyl)pyrazin-2-yl)-1,2-dihydroisoquinolin-3-yl)ethyl)amino)pyrido[2,3-d]pyrimidin-5(8H)-one] | 6 | – | -15 | – | – | – |
| C[C@H](Nc1ncnc2[nH]ccc(=O)c12)c1c(Cl)c2cccc(-c3ccc(N4CCN(C(=O)OC(C)(C)C)CC4)cc3)c2c(=O)n1-c1ccccc1 [Example 138, tert-butyl(S)-4-(4-(4-chloro-1-oxo-3-(1-((5-oxo-5,8-dihydropyrido[2,3-d]pyrimidin-4-yl)amino)ethyl)-2-phenyl-1,2-dihydroisoquinolin-8-yl)phenyl)piperazin-1-carboxylate] | 33 | 81 | 32 | 75 | – | – |
| Cc1ccc(-c2cccc3cc([C@H](C)Nc4ncnc5[nH]ccc(=O)c45)n(-c4ccccc4)c(=O)c23)cn1 [Example 13, (S)-4-((1-(8-(6-methylpyridin-3-yl)-1-oxo-2-phenyl-1,2-dihydroisoquinolin-3-yl)ethyl)amino)pyrido[2,3-d]pyrimidin-5(8H)-one] | 35 | 101 | 3 | 18 | – | – |
| C[C@H](Nc1ncnc2[nH]ccc(=O)c12)c1c(Cl)c2cccc(N3CCc4ccccc4C3)c2c(=O)n1-c1ccccc1 [Example 7, (S)-4′-chloro-3′-(1-((5-oxo-5,8-dihydropyrido[2,3-d]pyrimidin-4-yl)amino)ethyl)-2′-phenyl-3,4-dihydro-1H-(2,8′-biisoquinolin)-1′(2′H)-one] | 77 | 108 | 26 | 62 | – | – |
| C[C@H](Nc1ncnc2[nH]ccc(=O)c12)c1cc2cccc(-c3ccc(N(C)C)cc3)c2c(=O)n1-c1ccccc1 [Example 20, (S)-4-((1-(8-(4-(dimethylamino)phenyl)-1-oxo-2-phenyl-1,2-dihydroisoquinolin-3-yl)ethyl)amino)pyrido[2,3-d]pyrimidin-5(8H)-one] | 67 | 95 | 3 | 55 | – | – |
| C[C@H](Nc1ncnc2[nH]ccc(=O)c12)c1c(Cl)c2cccc(-c3cnc4ccccc4n3)c2c(=O)n1-c1ccccc1 [Example 48, (S)-4-((1-(4-chloro-1-oxo-2-phenyl-8-(quinoxalin-2-yl)-1,2-dihydroisoquinolin-3-yl)ethyl)amino)pyrido[2,3-d]pyrimidin-5(8H)-one] | 7 | – | -5 | – | – | – |

Second part, the compound after the results:

| inhibition at 0.01 µM [1] [%] | inhibition at 0.1 µM ([1]; compound concentration 0.1 μM) [%] | inhibition at 0.01 µM [2] [%] | inhibition at 0.1 µM ([2]; compound concentration 0.1 μM) [%] | inhibition at 0.1 µM ([1]; compound at 0.1 μM) [%] | inhibition at 0.1 µM ([2]; compound at 0.1 μM) [%] | Structure (SMILES) |
| --- | --- | --- | --- | --- | --- | --- |
| – | – | – | – | 32 | 57 | C[C@H](Nc1ncnc2[nH]ccc(=O)c12)c1c(Cl)c2cccc([S+]([O-])C3COC3)c2c(=O)n1-c1ccccc1 (stereo partly drawn) [Example 431, 4-(((1S)-1-(4-chloro-8-(oxetan-3-ylsulfinyl)-1-oxo-2-phenyl-1,2-dihydroisoquinolin-3-yl)ethyl)amino)pyrido[2,3-d]pyrimidin-5(8H)-one] |
| – | – | – | – | 76 | 19 | C[C@H](Nc1ncnc2[nH]ccc(=O)c12)c1c(Cl)c2cccc(-c3cc4ccccc4[nH]3)c2c(=O)n1-c1ccccc1 [Example 380, (S)-4-((1-(4-chloro-8-(1H-indol-2-yl)-1-oxo-2-phenyl-1,2-dihydroisoquinolin-3-yl)ethyl)amino)pyrido[2,3-d]pyrimidin-5(8H)-one] |
| 79 | – | 14 | – | – | – | CC(C)NC(=O)c1cccc2c(Cl)c([C@H](C)Nc3ncnc4[nH]ccc(=O)c34)n(-c3ccccc3)c(=O)c12 [Example 282, (S)-4-chloro-N-isopropyl-1-oxo-3-(1-((5-oxo-5,8-dihydropyrido[2,3-d]pyrimidin-4-yl)amino)ethyl)-2-phenyl-1,2-dihydroisoquinoline-8-carboxamide] |
| 96 | 110 | 40 | 82 | – | – | C[C@H](Nc1ncnc2[nH]ccc(=O)c12)c1c(Cl)c2cccc(-c3ccc(-c4ccccc4)cc3)c2c(=O)n1-c1ccccc1 [Example 254, (S)-4-((1-(8-([1,1′-biphenyl]-4-yl)-4-chloro-1-oxo-2-phenyl-1,2-dihydroisoquinolin-3-yl)ethyl)amino)pyrido[2,3-d]pyrimidin-5(8H)-one] |
| 24 | – | 1 | – | – | – | C[C@H](Nc1ncnc2[nH]ccc(=O)c12)c1c(Cl)c2cccc(-c3nc(N)nc(N)n3)c2c(=O)n1-c1ccccc1 [Example 293, (S)-4-((1-(4-chloro-8-(4,6-diamino-1,3,5-triazin-2-yl)-1-oxo-2-phenyl-1,2-dihydroisoquinolin-3-yl)ethyl)amino)pyrido[2,3-d]pyrimidin-5(8H)-one] |
| 83 | – | 56 | – | – | – | C[C@H](Nc1ncnc2[nH]ccc(=O)c12)c1c(Cl)c2cccc(-c3cc[nH]n3)c2c(=O)n1-c1ccccc1 [Example 226, (S)-4-((1-(4-chloro-1-oxo-2-phenyl-8-(1H-pyrazol-3-yl)-1,2-dihydroisoquinolin-3-yl)ethyl)amino)pyrido[2,3-d]pyrimidin-5(8H)-one] |
| 76 | 96 | 25 | 75 | – | – | C[C@H](Nc1ncnc2[nH]ccc(=O)c12)c1c(Cl)c2cccc(C#Cc3ccc(N(C)C)cc3)c2c(=O)n1-c1ccccc1 [Example 314, (S)-4-((1-(4-chloro-8-((4-(dimethylamino)phenyl)ethynyl)-1-oxo-2-phenyl-1,2-dihydroisoquinolin-3-yl)ethyl)amino)-5-oxo-5,8-dihydropyrido[2,3-d]pyrimidin-5(8H)-one] |
